Assay in all cases: growth of human tumour cells (NCI), 48 h
The subject of assay [1] is HCC 2998.
Assay [2] deals with HL-60.
The test system of assay [3] is SF-295.
The test system of assay [4] is MDA-MB-435.
For assay [5], the system named is M14.
Assay [6] has as its system Hs-578T.
Assay [7] relates to ACHN.
In assay [8] the test system is SK-MEL-5.
For assay [9], the system named is EKVX.
Assay [10] concerns CCRF-CEM.
Assay [11] deals with OVCAR-5.
Assay [12] has as its system HCT-15.
Assay [13] has as its system SK-MEL-28.
In assay [14] the test system is IGROV-1.
The subject of assay [15] is MDA-N.
In assay [16] the test system is RXF 393.
Assay [17] deals with NCI/ADR-RES.
Assay [18] has as its system TK-10.

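Results reflect a 48-hour exposure of cells in 96-well plates to compound at five concentrations. At the GI50, growth is halved.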 Active and inactive are the calls of the source. No stated cut-off is given here; in the data, active = GI50 up to about 1.1 µM and inactive = higher. Some results are limits rather than exact numbers.

Take `CCOC(=O)C(NC(=O)CC)(Nc1ccc(S(=O)(=O)Nc2ncccn2)cc1)C(F)(F)F` (stereo not given): the GI50 in assay [1], in [2], in assay [3], in assay [4], in [5] and in assay [6] was > 100 µM (inactive) each time. Moreover, the GI50 in assay [7] is > 100 µM (inactive); in [8] it was > 100 µM (inactive); in assay [9], > 100 µM (inactive); in [10], > 100 µM (inactive); in assay [11] it was > 100 µM (inactive); in assay [12], more than 100 µM. Moreover, the GI50 in [13], in [14], in [15], in [16] and in assay [17] was > 100 µM (inactive) throughout.
As for `CCOC(=O)C1=C(C)N(Cc2ccccc2)C2(O)C=CC(=O)C3C(=O)N(c4ccccc4)C(=O)C132` (stereo not given), the GI50 in assay [1] was 1.67 µM (inactive); in assay [2] it was 1.99 µM (inactive); in assay [3], 3.58 µM (inactive); in assay [4], 1.89 µM (inactive); in [5], 1.81 µM (inactive); in assay [6] it was 5.4 µM (inactive). In addition, the GI50 is 1.63 µM (inactive) in assay [7]; 3.57 µM (inactive) in assay [8]; 10.3 µM (inactive) in assay [9]; 0.735 µM (active) in assay [10]; 3.43 µM (inactive) in [11]; 1.79 µM in [12]. Besides, the GI50 in assay [13] is 1.82 µM (inactive); in assay [14] it was 2 µM (inactive); in assay [15], 3.61 µM (inactive); in assay [18], 3.44 µM (inactive); in assay [16], 1.35 µM (inactive); in assay [17], 2.75 µM (inactive).
For `COc1ccc(-c2oc(/C=N/NC(N)=S)c([N+](=O)[O-])c2-c2ccc(OC)c(OC)c2)cc1OC`, the GI50 was 21.7 µM (inactive) in [2]; 20.7 µM (inactive) in [3]; 20.7 µM (inactive) in assay [5]; 18.5 µM (inactive) in assay [7]; 22.8 µM (inactive) in assay [9]; > 10 µM (inactive) in [10]. In addition, the GI50 in assay [11] is 48.3 µM (inactive); in [12] it was 29.4 µM; in assay [13], 23.9 µM (inactive); in assay [14] it was 28.3 µM (inactive); in [18], 34 µM (inactive); in assay [16] it was 13.2 µM (inactive).
On to `COc1ccc(OC)c(N(CN2C(=O)CCC2C(=O)O)C(C)=O)c1` (stereo not given), for which the GI50 in assay [2], in assay [3], in [4], in [5], in assay [6] and in assay [7] was > 100 µM (inactive) throughout. For the same molecule, the GI50 in assay [8] is > 100 µM (inactive); in [9], > 100 µM (inactive); in assay [10], > 100 µM (inactive); in assay [11], > 100 µM (inactive); in [12], more than 100 µM; in assay [13], > 100 µM (inactive). Moreover, the GI50 in assay [14], in assay [15], in assay [18] and in [17] was > 100 µM (inactive) throughout.
As to `COc1cc(OC(C)=O)cc2c(OC(C)=O)ccc(OC(C)=O)c12`, the GI50 in assay [2] is 43.6 µM (inactive); in assay [3] it was > 100 µM (inactive); in assay [5], > 100 µM (inactive); in assay [7], > 100 µM (inactive); in assay [8], > 100 µM (inactive); in assay [9] it was > 100 µM (inactive). Further, the GI50 is 74.8 µM (inactive) in [10]; > 100 µM (inactive) in assay [11]; more than 100 µM in assay [12]; > 100 µM (inactive) in assay [13]; > 100 µM (inactive) in assay [14]; > 100 µM (inactive) in [18]. Besides, the GI50 in assay [16] is > 100 µM (inactive).
Take `O=C(O)c1ccc(Nc2nc3ccc(C(F)(F)F)cc3nc2C(=O)O)cc1`: the GI50 in [1], in assay [2], in assay [3], in assay [4], in [5] and in assay [6] was > 100 µM (inactive) throughout. In addition, the GI50 was > 100 µM (inactive) in [7]; > 100 µM (inactive) in [8]; > 100 µM (inactive) in [9]; > 100 µM (inactive) in [10]; > 100 µM (inactive) in assay [11]; more than 100 µM in [12]. The GI50 in assay [13], in assay [14], in assay [15], in [18], in [16] and in assay [17] was > 100 µM (inactive) in each case.
Take `[O-][N+]1=C(c2ccccc2)/C(=C2/C(c3ccccc3)=[N+]([O-])c3ccccc32)Cc2ccccc21`: the GI50 is 13.9 µM (inactive) in assay [1]; 40.1 µM (inactive) in assay [2]; 15.3 µM (inactive) in assay [3]; 20.2 µM (inactive) in assay [4]; 19.6 µM (inactive) in assay [5]; 20.9 µM (inactive) in assay [7]. In addition, the GI50 in assay [8] was 17.6 µM (inactive); in assay [9], 20.4 µM (inactive); in assay [10] it was 13.1 µM (inactive); in assay [11] it was 33.6 µM (inactive); in assay [12], 16.9 µM; in [13], 22.3 µM (inactive). Further, the GI50 in assay [14] is 16.4 µM (inactive); in [15] it was 17.1 µM (inactive); in assay [18], 18.2 µM (inactive); in assay [16] it was 33.1 µM (inactive); in [17], 15.7 µM (inactive).
On to `COC[C@@H](/N=C/c1ccc([N+](=O)[O-])cc1)C(C)C`, for which the GI50 is > 100 µM (inactive) in [3]; > 100 µM (inactive) in assay [4]; 70.1 µM (inactive) in [5]; > 100 µM (inactive) in assay [6]; > 100 µM (inactive) in [7]; > 10 µM (inactive) in assay [8]. Moreover, the GI50 in [9] is > 100 µM (inactive); in assay [10], 75.9 µM (inactive); in [11], > 100 µM (inactive); in assay [12], more than 100 µM; in [13] it was > 100 µM (inactive); in [14], > 100 µM (inactive). Besides, the GI50 in assay [15] was 29.4 µM (inactive); in [18] it was > 100 µM (inactive); in assay [16] it was > 100 µM (inactive); in assay [17], > 100 µM (inactive).
As for `CCCCCc1c(Cl)nc(Cl)nc1Cl`, the GI50 in [1] was 11.1 µM (inactive); in assay [2], 2.42 µM (inactive); in assay [3], 25.1 µM (inactive); in assay [4] it was 2.76 µM (inactive); in assay [5] it was 1.56 µM (inactive); in assay [6], 43.3 µM (inactive). Besides, the GI50 in assay [7] is 21 µM (inactive); in assay [8], 5.81 µM (inactive); in assay [9] it was 22.5 µM (inactive); in assay [10] it was 0.195 µM (active); in [11], 12.7 µM (inactive); in assay [12], 6.17 µM. Besides, the GI50 was 16.5 µM (inactive) in [13]; 7.05 µM (inactive) in assay [14]; 4.95 µM (inactive) in [15]; 12.1 µM (inactive) in assay [18]; 8.41 µM (inactive) in [16]; 12.1 µM (inactive) in [17].
Consider `O=C(NC1CCCCC1)c1c(O)[nH]c(=S)[nH]c1=O`, for which the GI50 was 99.3 µM (inactive) in [3]; > 100 µM (inactive) in [5]; 83 µM (inactive) in [7]; > 100 µM (inactive) in [8]; > 100 µM (inactive) in [10]; > 100 µM (inactive) in assay [11]. The GI50 in assay [12] was more than 100 µM; in [13] it was > 100 µM (inactive); in assay [14], > 100 µM (inactive); in assay [18], > 100 µM (inactive).
As to `CCOC(=O)C(C(=O)OCC)C(NC(=O)Nc1cc(C(F)(F)F)ccc1OC)(C(F)(F)F)C(F)(F)F`, the GI50 was 25.6 µM (inactive) in assay [1]; 21.8 µM (inactive) in assay [2]; 23.2 µM (inactive) in assay [3]; 19.1 µM (inactive) in [4]; 21.1 µM (inactive) in assay [5]; 25.2 µM (inactive) in [6]. In addition, the GI50 is 29.1 µM (inactive) in [7]; 19.4 µM (inactive) in [8]; 70.3 µM (inactive) in [9]; 20.8 µM (inactive) in [10]; 45.8 µM (inactive) in assay [11]; 45.8 µM in [12]. In addition, the GI50 is 37.5 µM (inactive) in assay [13]; 25.4 µM (inactive) in assay [14]; 33.2 µM (inactive) in assay [15]; 59 µM (inactive) in assay [18]; 30.3 µM (inactive) in assay [16]; 28.6 µM (inactive) in assay [17].
For the molecule `CC(C)c1c(O[Si](C(C)C)(C(C)C)C(C)C)cc2c(c1O)CC[C@H]1C(C)(C)CCC[C@]21C`, the GI50 in assay [2] was 24.6 µM (inactive); in [3] it was > 100 µM (inactive); in [4], > 100 µM (inactive); in [5], > 100 µM (inactive); in [6], > 100 µM (inactive); in assay [7], > 100 µM (inactive). Moreover, the GI50 in [8] is > 100 µM (inactive); in assay [9], > 100 µM (inactive); in assay [10], 49.5 µM (inactive); in assay [11] it was > 100 µM (inactive); in assay [12], more than 100 µM; in [13] it was > 100 µM (inactive). The GI50 in assay [14] is > 100 µM (inactive); in assay [15], > 100 µM (inactive); in assay [18], 6.12 µM (inactive); in assay [16], > 100 µM (inactive); in assay [17], > 100 µM (inactive).

The values above are taken from ChEMBL document CHEMBL1201862, “PubChem BioAssay data set” (2004).
